The values that follow come from US10973817B2, “Pharmaceutical compounds” (SENTINEL ONCOLOGY LIMITED, priority 2014, dated 2021).

Each structure is given as a SMILES string. Structures can show the parent of a compound that is named as a salt.

The assay addresses Chk-1 kinase (Homo sapiens (Human), UniProt O14757). Description: Chk-1 kinase inhibiting activity (33P-ATP filter-binding kinase assay). The class given is biochemical. As to conditions: against Chk-1 kinase; recombinant full length GST-tagged, 0.5 nM; CHKtide substrate 20 μM; 120 minutes at room temperature. On the procedure:
Chk-1 Kinase Inhibiting Activity
The compounds of the invention were tested for activity against Chk-1 kinase using the materials and protocols set out below.
Base Reaction buffer: 20 mM Hepes (pH 7.5), 10 mM MgCl2, 1 mM EGTA, 0.02% Brij35, 0.02 mg/ml BSA, 0.1 mM Na3VO4, 2 mM DTT, 1% DMSO • Required cofactors are added individually to each kinase reaction Reaction Procedure: (i) Prepare indicated substrate in freshly prepared Base Reaction Buffer (ii) Deliver any required cofactors to the substrate solution above (iii) Deliver indicated kinase into the substrate solution and gently mix (iv) Deliver compounds in DMSO into the kinase reaction mixture (v) Deliver ^33P-ATP (specific activity 0.01 μCi/μl final) into the reaction mixture to initiate the reaction. (vi) Incubate kinase reaction for 120 minutes at room temperature (vii) Reactions are spotted onto P81 ion exchange paper (Whatman #3698-915) (viii) Wash filters extensively in 0.1% phosphoric acid. (ix) Dry filters and measure counts in scintillation counter Kinase Information: CHK-1H—Genbank Accession # AF016582 Recombinant full length construct, N-terminal GST tagged, purified from insect cells. […]
From the results obtained by following the above protocol, the IC50 values against Chk-1 kinase of each of the compounds of Examples 1-153 were determined and these are shown in Table 3.

Chain of Chk-1 kinase (O14757 whole entry): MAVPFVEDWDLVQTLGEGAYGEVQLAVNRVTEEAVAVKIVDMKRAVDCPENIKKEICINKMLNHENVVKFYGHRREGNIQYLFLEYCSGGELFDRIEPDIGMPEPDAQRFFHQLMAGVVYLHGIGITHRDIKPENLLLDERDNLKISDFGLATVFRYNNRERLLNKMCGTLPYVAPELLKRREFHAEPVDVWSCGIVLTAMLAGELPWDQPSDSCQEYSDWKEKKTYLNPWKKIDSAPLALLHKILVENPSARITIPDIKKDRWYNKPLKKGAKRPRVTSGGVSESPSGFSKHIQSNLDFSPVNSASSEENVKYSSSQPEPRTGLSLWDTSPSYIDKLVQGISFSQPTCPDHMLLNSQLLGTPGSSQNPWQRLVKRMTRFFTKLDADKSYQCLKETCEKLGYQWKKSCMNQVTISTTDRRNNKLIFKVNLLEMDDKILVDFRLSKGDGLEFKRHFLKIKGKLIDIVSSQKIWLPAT

By IC50 is commonly meant the point on the concentration scale where inhibition reaches its midpoint. As for `COc1cc(CN2CC[C@H](OC)C2)ccc1-c1cc(Nc2cnc(C#N)cn2)n[nH]1` [Example 124, 5-[[5-[2-methoxy-4-[[(3S)-3-methoxypyrrolidin-1H-yl]methyl]phenyl]-1H-pyrazol-3-yl]amino]pyrazine-2-carbonitrile, hydrochloride], the IC50 came out at 0.25 nM.

For `COc1cc(CN2CC[C@@H](OC)C2)ccc1-c1cc(Nc2cnc(C#N)cn2)n[nH]1` [Example 125, 5-[[5-[2-methoxy-4-[[(3R)-3-methoxypyrrolidin-1H-yl]methyl]phenyl]-1H-pyrazol-3-yl]amino]pyrazine-2-carbonitrile, hydrochloride], the IC50 was 0.28 nM.
